Test results as given in patent US20250074896A1, “ARYLTETRAHYDROPYRIDAZINE DERIVATIVE OR SALT THEREOF AND INSECTICIDAL AGENT CONTAINING THE COMPOUND AND METHOD FOR USING SAME” (NIHON NOHYAKU CO., LTD., priority 2021, published 2025).
Like-named read-outs stand apart in the source and are kept apart here.

Experiments:
Assay type in all cases: in vivo
[1] = test system: Western Flower Thrips (Frankliniella occidentalis); assay: Insecticidal test on western flower thrips (kidney bean leaf pieces, hatched larvae); details: 96 h, read-out: insecticidal efficacy (corrected mortality rate) against western flower thrips
From the text: (§1) • A: the mortality rate is 100%. • B: the mortality rate is 90 to 99%. • C: the mortality rate is 80 to 89%. • D: the mortality rate is 50 to 79%. • E: the mortality rate is 0 to 49%.
Insecticidal Test on Western Flower Thrips (Frankliniella occidentalis)
Female adults of western flower thrips were inoculated onto kidney bean leaf pieces, and allowed to lay eggs thereon for one day, then the female adults were removed. After 3 days, the hatched larvae on the leaf pieces were counted, and then the agrochemical dispersions diluted to 50 ppm or 500 ppm, each of which contained the compound described in Tables 1 to 6 as an active ingredient were applied. The number of larvae of the species surviving at 4 days after the treatment was counted, and the corrected mortality rate was calculated according to the formula shown below, and the insecticidal efficacy was evaluated according to the criteria of Test Example 1. This test was conducted in duplicate.

[2] = test system: Diamondback moth (Plutella xylostella); assay: Insecticidal test on diamondback moth (dip treatment of Chinese cabbage seedlings with laid eggs); details: 144 h, read-out: insecticidal efficacy (corrected mortality rate) against diamondback moth
From the text: Insecticidal Test on Diamondback moth (Plutella xylostella)
Adults of diamondback moth were released onto Chinese cabbage seedlings and allowed to lay eggs thereon. At 2 days after the release of the adults, the Chinese cabbage seedlings with laid eggs were dipped for about 30 seconds in agrochemical dispersions diluted to 50 ppm or 500 ppm, each of which contained a different compound represented by the general formula (1) of the present invention as an active ingredient. After air-dried, the seedlings were kept in a thermostatic chamber at 25° C. At 6 days after the dip treatment, the number of surviving larvae per plot was counted, the corrected mortality rate was calculated according to the formula shown below, and the insecticidal efficacy was evaluated according to the criteria shown below. This test was conducted in triplicate using 10 adults of diamondback moth per plot.
as §1

[3] = test system: Small Brown Planthopper (Laodelphax striatellus); assay: Insecticidal test on small brown planthopper (dipped rice seedlings, 3rd-instar larvae); details: 192 h, rice seedlings dipped 30 seconds, 8 days after inoculation, read-out: insecticidal efficacy (corrected mortality rate) against small brown planthopper
From the text: as §1
Insecticidal Test on Small Brown Planthopper (Laodelphax striatellus)
The compounds represented by the general formula (1) of the present invention or salts thereof were separately dispersed in water and diluted to 50 ppm or 500 ppm. Rice plant seedlings (variety: Nihonbare) were dipped in the agrochemical dispersions for 30 seconds. After air-dried, each seedling was put into a separate glass test tube and inoculated with ten 3rd-instar larvae of small brown planthopper, and then the glass test tubes were capped with cotton plugs. At 8 days after the inoculation, the numbers of surviving larvae and dead larvae were counted, the corrected mortality rate was calculated according to the formula shown below, and the insecticidal efficacy was evaluated according to the criteria of Test Example 1.

[4] = 500 ppm, 4 days after the treatment
[5] = 500 ppm, dip about 30 seconds, 6 days after treatment, 25° C.
[6] = dip about 30 seconds, 6 days after treatment, 25° C.

O=C(Nc1ccc(C(F)(F)F)cc1)C1=C(O)CN(c2ccc(C(F)(F)F)nc2)NC1=O [1-85, N-(4-trifluoromethylphenyl)-5-hydroxy-3-oxo-1-(6-(trifluoromethyl)pyridin-3-yl)-1,2,3,6-tetrahydropyridazine-4-carboxamide]
100%: mortality at 500 ppm [1] | mortality at 500 ppm [2]

CCNC(=O)N1C(=O)C(C(=O)Nc2ccc(F)cc2)=C(O)CN1c1ccc(C(F)(F)F)nc1 [3-22, N^1-ethyl-N^5-(4-fluorophenyl)-4-hydroxy-6-oxo-2-(6-(trifluoromethyl)pyridin-3-yl)-2,3-dihydropyridazine-1,5(6H)-dicarboxamide]
100%: mortality at 50 ppm ([1]; 4 days after the treatment) | mortality at 500 ppm [1, 4] | mortality at 500 ppm [3] | mortality at 500 ppm [2, 5]

CC(C)(C)OC(=O)N1C(=O)C(C(=O)Nc2ccc(F)cc2)=C(O)CN1c1ccc(C(F)(F)F)nc1 [3-308, tert-butyl 5-((4-fluorophenyl)carbamoyl)-4-hydroxy-6-oxo-2-(6-(trifluoromethyl)pyridin-3-yl)-2,3-dihydropyridazine-1(6H)-carboxylate]
100%: mortality at 50 ppm ([1]; 4 days after the treatment) | mortality at 500 ppm [1, 4] | mortality at 50 ppm [3] | mortality at 500 ppm [3] | mortality at 50 ppm [2, 6] | mortality at 500 ppm [2, 5]

CNC(=S)N1C(=O)C(C(=O)Nc2ccc(F)cc2)=C(O)CN1c1ccc(C(F)(F)F)nc1 [3-362, N-(4-fluorophenyl)-5-hydroxy-2-(methylcarbamothioyl)-3-oxo-1-(6-(trifluoromethyl)pyridin-3-yl)-1,2,3,6-tetrahydropyridazine-4-carboxamide]
100%: mortality at 50 ppm ([1]; 4 days after the treatment) | mortality at 500 ppm [1, 4] | mortality at 50 ppm [2, 6] | mortality at 500 ppm [2, 5]

COC(=O)N1C(=O)C(C(=O)Nc2ccn(C)n2)=C(O)CN1c1ccc(C#N)cc1 [3-437, methyl 2-(4-cyanophenyl)-4-hydroxy-5-((1-methyl-1H-pyrazol-3-yl)carbamoyl)-6-oxo-2,3-dihydropyridazine-1(6H)-carboxylate]
100%: mortality at 50 ppm ([1]; 4 days after the treatment) | mortality at 500 ppm [1, 4] | mortality at 50 ppm [3] | mortality at 500 ppm [3]

CCCNC(=O)N1C(=O)C(C(=O)Nc2ccn(C)n2)=C(O)CN1c1ccc(C#N)cc1 [3-563, N^5-(1-methyl-1H-pyrazol-3-yl) N^1-propyl 4-hydroxy-6-oxo-2-(4-cyanophenyl)-2,3-dihydropyridazine-1,5(6H)-dicarboxamide]
100%: mortality at 50 ppm [3] | mortality at 500 ppm [3]

CC(C)(C)OC(=O)N1C(=O)C(C(=S)Nc2ccc(F)cc2)=C(O)CN1c1ccc(C(F)(F)F)nc1 [4-34, tert-butyl 5-((4-fluorophenyl)carbamothioyl)-4-hydroxy-6-oxo-2-(6-(trifluoromethyl)pyridin-3-yl)-2,3-dihydropyridazine-1(6H)-carboxylate]
100%: mortality at 50 ppm ([1]; 4 days after the treatment) | mortality at 500 ppm [1, 4] | mortality at 50 ppm [3] | mortality at 500 ppm [3] | mortality at 50 ppm [2, 6] | mortality at 500 ppm [2, 5]

O=C(Nc1ccc(F)cc1)C1=C(S)CN(c2ccc(C(F)(F)F)nc2)NC1=O [5-2, N-(4-fluorophenyl)-5-mercapto-3-oxo-1-(6-(trifluoromethyl)pyridin-3-yl)-1,2,3,6-tetrahydropyridazine-4-carboxamide]
100%: mortality at 50 ppm ([1]; 4 days after the treatment) | mortality at 500 ppm [1, 4] | mortality at 50 ppm [3] | mortality at 500 ppm [3] | mortality at 50 ppm [2, 6] | mortality at 500 ppm [2, 5]

CC(C)(C)OC(=O)N1C(=O)C(C(=O)Nc2ccc(F)cc2)=C(S)CN1c1ccc(C(F)(F)F)nc1 [5-7, tert-butyl 5-((4-fluorophenyl)carbamoyl)-4-mercapto-6-oxo-2-(6-(trifluoromethyl)pyridin-3-yl)-2,3-dihydropyridazine-1(6H)-carboxylate]
100%: mortality at 50 ppm ([1]; 4 days after the treatment) | mortality at 500 ppm [1, 4] | mortality at 50 ppm [3] | mortality at 500 ppm [3] | mortality at 50 ppm [2, 6] | mortality at 500 ppm [2, 5]

CSC1=C(C(=O)Nc2ccc(F)cc2)C(=O)N(C(=O)OC(C)(C)C)N(c2ccc(C(F)(F)F)nc2)C1 [5-11, tert-butyl 5-((4-fluorophenyl)carbamoyl)-4-methylsulfanyl-6-oxo-2-(6-(trifluoromethyl)pyridin-3-yl)-2,3-dihydropyridazine-1(6H)-carboxylate]
100%: mortality at 50 ppm ([1]; 4 days after the treatment) | mortality at 500 ppm [1, 4] | mortality at 50 ppm [3] | mortality at 500 ppm [3] | mortality at 50 ppm [2, 6] | mortality at 500 ppm [2, 5]

N#Cc1ccc(N2CC(O)=C(C(=O)Nc3ccc(F)cc3)C(=S)N2)cn1 [6-6, 1-(6-cyanopyridin-3-yl)-N-(4-fluorophenyl)-5-hydroxy-3-thioxo-1,2,3,6-tetrahydropyridazine-4-carboxamide]
100%: mortality at 500 ppm [1, 4] | mortality at 500 ppm [3] | mortality at 500 ppm [2, 5]
